From patent EP1561465A2, “Methods of use of fluoroquinolone compounds against bacteria” (LG Life Sciences, Ltd., priority 1999, dated 2001)
In brackets after ≈: the same amount, converted by molar mass. Several values for one entry are separate records, joined by “and”; a condition that tells them apart may be missing. Identical values can stand only once. Like-named read-outs stand apart in the source and are kept apart here.

Legend:
Type in all cases: cell-based
[1] = tested on: Streptococcus pyogenes; experiment: MIC by NCCLS reference broth microdilution, 450 respiratory tract pathogens; conditions: Streptococcus pyogenes
[2] = tested on: Haemophilus influenzae; experiment: as above; conditions: Haemophilus influenzae; for MIC90: read-out: MIC90
[3] = tested on: Staphylococcus aureus; experiment: as above
[4] = tested on: Staphylococcus aureus; experiment: MIC by NCCLS broth microdilution, 1100 Japanese clinical isolates 1997-1998; conditions: for MIC: Staphylococcus aureus quinolone resistant
[5] = tested on: Streptococcus pyogenes; experiment: as above; conditions: Streptococcus pyogenes (n=51)
[6] = tested on: Citrobacter freundii; experiment: as above; conditions: Citrobacter freundii (n=39)
[7] = tested on: Klebsiella pneumoniae; experiment: as above; conditions: Klebsiella pneumoniae (n=35)
[8] = tested on: Shigella spp.; experiment: as above; conditions: Shigella spp. (n=34)
[9] = tested on: Serratia marcescens; experiment: as above; conditions: Serratia marcescens (n=30)
[10] = tested on: Gram negative anaerobic pathogens and facultative anaerobic pathogens; experiment: MIC by agar dilution, Brucella HK agar with 5% laked sheep blood, anaerobic reference strains
[11] = Streptococcus pyogenes (n = 100)
[12] = erythromycin resistant C phenotype [MLSB] (n = 20)
[13] = erythromycin resistant I phenotype [MLSB] (n = 20)
[14] = erythromycin resistant M phenotype (n = 20)
[15] = Haemophilus influenzae (n = 100)
[16] = β-lactamase positive and erythromycin resistant (n = 10)
[17] = Staphylococcus aureus oxacillin susceptible (n=41)
[18] = Staphylococcus aureus, Staphylococcus aureus oxacillin resistant (n=57)

Q: What does the source list for `C[C@@H]1CN(c2c(F)c(N)c3c(=O)c(C(=O)O)cn(C4CC4)c3c2F)C[C@H](C)N1` [Sparfloxacin, sparfloxacin]?
A: MIC [1, 11]: 0.06 to 1 µg/mL (≈ 0.153 to 2.55 µM); MIC50 [1, 11]: 0.5 µg/mL (≈ 1.27 µM); MIC90 [1, 11]: 1 µg/mL (≈ 2.55 µM); MIC [1, 12]: 0.25 to 1 µg/mL (≈ 0.637 to 2.55 µM); MIC50 [1, 12]: 0.25 µg/mL (≈ 0.637 µM); MIC90 [1, 12]: 0.25 µg/mL (≈ 0.637 µM); MIC [1, 13]: 0.06 to 1 µg/mL (≈ 0.153 to 2.55 µM); MIC50 [1, 13]: 0.5 µg/mL (≈ 1.27 µM); MIC90 [1, 13]: 0.5 µg/mL (≈ 1.27 µM); MIC [1, 14]: 0.25 to 1 µg/mL (≈ 0.637 to 2.55 µM); MIC50 [1, 14]: 0.5 µg/mL (≈ 1.27 µM); MIC90 [1, 14]: 0.5 µg/mL (≈ 1.27 µM); MIC ([1]; fully susceptible (n = 20)): 0.25 to 1 µg/mL (≈ 0.637 to 2.55 µM); MIC50 ([1]; fully susceptible (n = 20)): 0.5 µg/mL (≈ 1.27 µM); MIC90 ([1]; fully susceptible (n = 20)): 1 µg/mL (≈ 2.55 µM); MIC ([1]; multi-drug resistant (n = 20)): 0.25 to 1 µg/mL (≈ 0.637 to 2.55 µM); MIC50 ([1]; multi-drug resistant (n = 20)): 1 µg/mL (≈ 2.55 µM); MIC90 ([1]; multi-drug resistant (n = 20)): 1 µg/mL (≈ 2.55 µM); MIC [2, 15]: 0.0075 to 0.25 µg/mL (≈ 0.0191 to 0.637 µM); MIC50 [2, 15]: 0.01 µg/mL (≈ 0.0255 µM); MIC90 [2, 15]: 0.03 µg/mL (≈ 0.0765 µM); MIC ([2]; β-lactamase negative (n = 80)): 0.0075 to 0.25 µg/mL (≈ 0.0191 to 0.637 µM); MIC50 ([2]; β-lactamase negative (n = 80)): 0.015 µg/mL (≈ 0.0382 µM); MIC90 ([2]; β-lactamase negative (n = 80)): 0.25 µg/mL (≈ 0.637 µM); MIC ([2]; β-lactamase positive (n = 20)): 0.0075 to 0.12 µg/mL (≈ 0.0191 to 0.306 µM); MIC50 ([2]; β-lactamase positive (n = 20)): 0.015 µg/mL (≈ 0.0382 µM); MIC90 ([2]; β-lactamase positive (n = 20)): 0.03 µg/mL (≈ 0.0765 µM); MIC ([3]; Staphylococcus aureus (n = 50)): 0.06 to 1 µg/mL (≈ 0.153 to 2.55 µM); MIC50 ([3]; Staphylococcus aureus (n = 50)): 0.5 µg/mL (≈ 1.27 µM); MIC90 ([3]; Staphylococcus aureus (n = 50)): 0.5 µg/mL (≈ 1.27 µM); MIC ([3]; β-lactamase negative (n = 20)): 0.06 to 1 µg/mL (≈ 0.153 to 2.55 µM); MIC50 ([3]; β-lactamase negative (n = 20)): 0.5 µg/mL (≈ 1.27 µM); MIC90 ([3]; β-lactamase negative (n = 20)): 0.5 µg/mL (≈ 1.27 µM); MIC ([3]; β-lactamase positive (n = 20)): 0.12 to 1 µg/mL (≈ 0.306 to 2.55 µM); MIC50 ([3]; β-lactamase positive (n = 20)): 0.5 µg/mL (≈ 1.27 µM); MIC90 ([3]; β-lactamase positive (n = 20)): 0.5 µg/mL (≈ 1.27 µM); MIC [3, 16]: 0.25 to 1 µg/mL (≈ 0.637 to 2.55 µM); MIC50 [3, 16]: 0.25 µg/mL (≈ 0.637 µM); MIC90 [3, 16]: 0.5 µg/mL (≈ 1.27 µM); MIC Range ([4]; Staphylococcus aureus oxacillin resistant (n=57)): 0.032 to 128 µg/mL; MIC90 [4, 17]: 0.125 µg/mL (≈ 0.319 µM); MIC Range [4, 17]: 0.032 to 1 µg/mL; MIC50 [4, 18]: 4 µg/mL (≈ 10.2 µM); MIC90 [4, 18]: 32 µg/mL (≈ 81.5 µM); MIC50 ([4]; Staphylococcus aureus, Staphylococcus aureus oxacillin susceptible (n=41)): 0.063 µg/mL (≈ 0.161 µM); MIC ([4]; Staphylococcus aureus, strain TMS1* (spontaneous mutant resistant to ciprofloxacin)): 0.125 µg/mL (≈ 0.319 µM); MIC ([4]; Staphylococcus aureus, strain TMS3, read-out: MIC): 128 µg/mL (≈ 326 µM); MIC ([4]; Staphylococcus aureus, strain TMS4, read-out: MIC): 8 µg/mL (≈ 20.4 µM); MIC ([4]; Staphylococcus aureus, strain TMS5, read-out: MIC): 8 µg/mL (≈ 20.4 µM); MIC ([4]; Staphylococcus aureus, strain TMS6, read-out: MIC): 2 µg/mL (≈ 5.1 µM); MIC90 [5]: 1 µg/mL (≈ 2.55 µM); MIC Range [5]: 0.25 to 1 µg/mL; MIC50 ([5]; read-out: MIC50): 0.5 µg/mL (≈ 1.27 µM); MIC90 [6]: 2 µg/mL (≈ 5.1 µM); MIC Range [6]: 0.016 to 4 µg/mL; MIC50 ([6]; read-out: MIC50): 0.25 µg/mL (≈ 0.637 µM); MIC50 [7]: 0.032 µg/mL (≈ 0.0815 µM); MIC Range [7]: 0.016 to 2 µg/mL; MIC90 ([7]; read-out: MIC90): 0.063 µg/mL (≈ 0.161 µM); MIC50 [8]: ≤ 0.008 µg/mL; MIC90 [8]: 0.032 µg/mL (≈ 0.0815 µM); MIC Range [8]: ≤0.008 to 0.032 µg/mL; MIC90 [9]: 2 µg/mL (≈ 5.1 µM); MIC Range [9]: 0.063 to 64 µg/mL; MIC50 ([9]; read-out: MIC50): 0.25 µg/mL (≈ 0.637 µM); MIC [10]: 2 µg/mL and 0.125 µg/mL; MIC ([10]; Bacteroides eggerthii, ATCC27754, Bacteroides eggerthii ATCC27754, read-out: MIC): 4 µg/mL (≈ 10.2 µM); MIC ([10]; Bacteroides fragilis, ATCC25285, Bacteroides fragilis ATCC25285, read-out: MIC): 1 µg/mL (≈ 2.55 µM); MIC ([10]; Bacteroides fragilis, Bacteroides fragilis GA15562, read-out: MIC): 1 µg/mL (≈ 2.55 µM); MIC ([10]; Bacteroides fragilis, Bacteroides fragilis GA-I0558, read-out: MIC): 1 µg/mL (≈ 2.55 µM); MIC ([10]; Bacteroides fragilis, Bacteroides fragilis GA-I7955, read-out: MIC): 1 µg/mL (≈ 2.55 µM); MIC ([10]; Bacteroides fragilis, Bacteroides fragilis GAI10150, read-out: MIC): 1 µg/mL (≈ 2.55 µM); MIC ([10]; Bacteroides fragilis, Bacteroides fragilis GAI30079, read-out: MIC): 2 µg/mL (≈ 5.1 µM); MIC ([10]; Bacteroides fragilis, Bacteroides fragilis GAI30144, read-out: MIC): 1 µg/mL (≈ 2.55 µM); MIC ([10]; Bacteroides fragilis, NCTC10581, Bacteroides fragilis NCTC10581, read-out: MIC): 1 µg/mL (≈ 2.55 µM); MIC ([10]; Bacteroides ovatus, ATCC8483, Bacteroides ovatus ATCC8483, read-out: MIC): 2 µg/mL (≈ 5.1 µM); MIC ([10]; Bacteroides thetaiotaomicron, ATCC29741, Bacteroides thetaiotaomicron ATCC29741, read-out: MIC): 2 µg/mL (≈ 5.1 µM); MIC ([10]; Bacteroides uniformis, ATCC8492, Bacteroides uniformis ATCC8492, read-out: MIC): 1 µg/mL (≈ 2.55 µM); MIC ([10]; Bilophilla wadsworthia WAL7959, read-out: MIC): 0.5 µg/mL (≈ 1.27 µM); MIC ([10]; Campylobacter gracilis, JCM8538, Campylobacter gracilis JCM8538, read-out: MIC): ≤ 0.03 µg/mL; MIC ([10]; Campylobacter ureolyticus, NCTC10941, Bacteroides ureolyticus NCTC10941, read-out: MIC): 0.06 µg/mL (≈ 0.153 µM); MIC ([10]; Capnocytophaga ochracea, Capnocytophaga ochracea GAI5586, read-out: MIC): ≤ 0.03 µg/mL; MIC ([10]; Desullomonas pigra DSM749, read-out: MIC): 0.06 µg/mL (≈ 0.153 µM); MIC ([10]; Fusobacterium necrophorum, ATCC25286, Fusobacterium necrophorum ATCC25286, read-out: MIC): 1 µg/mL (≈ 2.55 µM); MIC ([10]; Fusobacterium nucleatum, ATCC25586, Fusobacterium nucleatum ATCC25586, read-out: MIC): 1 µg/mL (≈ 2.55 µM); MIC ([10]; Fusobacterium varium, ATCC8501, Fusobacterium varium ATCC8501, read-out: MIC): 8 µg/mL (≈ 20.4 µM); MIC ([10]; Hoylesella oralis, ATCC33269, Prevotella oralis ATCC33269, read-out: MIC): 4 µg/mL (≈ 10.2 µM); MIC ([10]; Parabacteroides distasonis, ATCC8503, Bacteroides distasonis ATCC8503, read-out: MIC): 2 µg/mL (≈ 5.1 µM); MIC ([10]; Phocaeicola vulgatus, ATCC8482, Bacteroides vulgatus ATCC8482, read-out: MIC): 2 µg/mL (≈ 5.1 µM); MIC ([10]; Porphyromonas asaccharolytica, ATCC25260, Porphyromonas asaccharolytica ATCC25260, read-out: MIC): 0.25 µg/mL (≈ 0.637 µM); MIC ([10]; Prevotella bivia, ATCC29303, Prevotella bivia ATCC29303, read-out: MIC): 8 µg/mL (≈ 20.4 µM); MIC ([10]; Prevotella buccaeATCC33574, read-out: MIC): 2 µg/mL (≈ 5.1 µM); MIC ([10]; Prevotella corporis, Prevotella corporis GAI91000, read-out: MIC): 2 µg/mL (≈ 5.1 µM); MIC ([10]; Prevotella heparinolytica, ATCC35895, Prevotella heparinolytica ATCC35895, read-out: MIC): 0.5 µg/mL (≈ 1.27 µM); MIC ([10]; Prevotella melaninogenica, Prevotella melaninogenica GAI5490, read-out: MIC): 2 µg/mL (≈ 5.1 µM); MIC ([10]; Segatella oris, ATCC33573, Prevotella oris ATCC33573, read-out: MIC): 2 µg/mL (≈ 5.1 µM); MIC ([10]; Sutterella wadsworthensis, ATCC51579, Sutterella wadsworthensis ATCC51579, read-out: MIC): 0.25 µg/mL (≈ 0.637 µM); MIC ([10]; Veillonella dispar, ATCC17748): 0.125 µg/mL (≈ 0.319 µM); MIC ([10]; Veillonella parvula, ATCC10790, Veillonella parvula ATCC10790, read-out: MIC): 0.25 µg/mL (≈ 0.637 µM)
